We go through 4 compounds from patent publication US9926354B2, “Amyloid precursor protein (APP) based Ã#-secretase inhibitor peptides, and methods of use” (UNIVERSITY OF SOUTH FLORIDA, priority 2014, dated 2018).

Values joined by “and” are separate entries in the source; they are usually repeats but may differ in a detail not shown here. Identical values can stand only once. No end group written: not given here. Bounds are passed on as bounds.

The target in series [1] is T1, BACE1 (Homo sapiens, UniProt P56817). Also noted: purchased Pan Vera Co., Madison, Wis., USA. As to conditions: phase II clinical trial suspended June 2013; cited from earlier work.
T1 sequence (P56817 46-501): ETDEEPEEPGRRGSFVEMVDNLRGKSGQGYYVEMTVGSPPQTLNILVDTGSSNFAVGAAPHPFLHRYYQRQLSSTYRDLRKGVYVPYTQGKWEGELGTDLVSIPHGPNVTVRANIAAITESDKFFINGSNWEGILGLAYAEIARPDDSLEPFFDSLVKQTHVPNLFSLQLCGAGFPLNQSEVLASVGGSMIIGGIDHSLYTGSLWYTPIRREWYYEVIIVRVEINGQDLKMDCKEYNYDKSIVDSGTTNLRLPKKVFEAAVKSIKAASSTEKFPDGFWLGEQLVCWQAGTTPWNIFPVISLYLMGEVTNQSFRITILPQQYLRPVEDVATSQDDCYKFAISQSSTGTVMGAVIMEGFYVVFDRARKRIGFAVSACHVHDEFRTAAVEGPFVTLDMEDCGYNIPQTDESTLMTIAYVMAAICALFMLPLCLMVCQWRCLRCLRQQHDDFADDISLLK
Series [2] deals with T1, BACE1. As to the kind of experiment: BACE1 activity assay (FRET, cell-free). Format: biochemical. More on the design: purchased Pan Vera Co., Madison, Wis., USA. As to conditions: for % of inhibition (mean ± SD) of BACE1: peptide final concentration 20 μM, 90 minutes, room temperature, 20 µM. The procedure:
BACE1 Activity Assay—The BACE1 inhibiting activity of APP-based BACE1 site binding peptides were determined using a fluorescence resonance energy transfer (FRET) assay (Pan Vera Co., Madison, Wis., USA), which employs a recombinant baculovirus-expressed BACE1 and a specific substrate (Rh-[…]-quencher) that is based on the APPswe mutation. This specific peptide substrate becomes highly fluorescent upon enzymatic cleavage. A mixture of 10 μL of BACE1 (1.0 U/mL in 50 mM Tris, pH7.5, 10% glycerol), 10 μL of FRET-substrate, and 10 μL of the various APP-based BACE1 site binding peptides (final concentration 20 μM) were incubated for 90 minutes in the dark at room temperature. Then, 10 μL of BACE1 stop buffer (2.5 M sodium acetate) was added to the mixture. Fluorescence was read using a fluorometer, with excitation at 545 nm and emission at 585 nm.
As a required enzyme for the generation of neurotoxic Aβ from APP, BACE1 is well established as an important mediator of AD β-amyloid pathology. As such, it has become an important target for new disease modifying therapeutics. However, since BACE1 also has important physiological roles, abolishment of the enzyme or its activity may lead to deleterious side effects as evidenced by numerous failed clinical trials discussed previously. […] Since previous studies have established a close relationship between α-helix structure and peptide-protein (or protein-protein) interactions (Azzarito, 2013; Rao et al., 2013), several APP based peptides were synthesized that might serve as a preferable substrate for BACE1. Importantly, these peptides were free of the Aβ-containing segment and, thus, cannot be amyloidogenic. In theory, these could be used to “hijack” the BACE1 processing of endogenous APP and lead to a decrease in cerebral Aβ. These BACE1 substrates and controls were incubated with recombinant BACE1 and percent of inhibition of the enzyme was calculated. […] These findings indicate that the α-helical TAT fusion domain may help to promote selective APPsweBBP proteolysis by BACE1, yielding substrate competition against human wild-type APP.

Series [3] relates to CHO cells over-expressing human wild-type APP (CHO/APPwt). As to the kind of experiment: Aβ and sAPPα production in cultured media of CHO/APPwt cells by ELISA (24 hours). Format: cell-based, Chinese hamster. As to conditions: 20 μg/mL. The method, then: (§1) Cell Culture—Chinese hamster ovary (CHO) cells engineered to express wild-type human APP (CHO/APPwt cells) or Swedish mutant human APP (CHO/APPswe cells) were kindly provided by Dr. Stefanie Hahn and Dr. Sascha Weggen (University of Heinrich Heine, Dusseldorf, Germany). As described previously (Obregon et al., 2012), these cells were cultured in Dulbecco's modified Eagle's medium (DMEM) with 10% fetal bovine serum (FBS), 1 mM sodium pyruvate, and 100 units/mL of penicillin and streptomycin.
To confirm the binding of APPsweBBP with BACE1, CHO/APPwt cells were plated in 8-well chambers (5×10^5/well), incubated with TAT-APPsweBBP-biotin or APPsweBBP-biotin at 20 μM for 30 minutes, fixed with 4% paraformaldehyde for 20 minutes, washed and permeabilized with 0.5% Triton X-100. Following application of blocking buffer, these cells were stained with mouse anti-BACE1 and rabbit anti-biotin antibodies overnight at 4° C. for immunocytochemistry analysis. […] The cultured media were collected for Aβ analysis by enzyme-linked immunosorbent assay (ELISA) and sAPPα analysis by ELISA and Western blot (WB). Cell lysates were also prepared for analysis of APP amyloidogenic processing by WB.
(§2) ELISA—Mouse brains were homogenized in ice-cold lysis buffer for 30 seconds using a Minilys tissue homogenizer (Bertin Technologies, Montigny-le-Bretonneux, France) set at high speed, allowed to stand for 15 minutes at 4° C., and centrifuged at 15,000 rpm for 30 minutes. Soluble Aβ1-40/42 species and sAPPα were directly detected in cultured cell media or brain homogenates using the Aβ1-40/42 (Invitrogen) and sAPPα ELISA kits (IBL-America, Minneapolis, Minn., USA).
(§3) To further examine the ability of the Swedish mutant APP BACE1 binding peptide/Tat fusion peptides to decrease Aβ production, CHO cells overexpressing either human wild-type APP (CHO/APPwt cells) or Swedish mutant APP (hereinafter referred to as “CHO/APPswe cells”) are treated with a variety of APP-based BACE1 inhibitor peptides, as shown in Table 1 and Table 2. Aβ production is determined using ELISA.
(An ELISA detects its analyte on a solid surface through an enzyme-linked reagent.)

In a further series the test system is CHO/APPwt cells. As to the kind of experiment: Aβ production in CHO/APPwt cells by ELISA (Example 1, 4 hours). Format: cell-based, Chinese hamster. As to conditions: 20 μg/mL. The procedure:
To examine the effects of various Swedish Tat fusion peptides on Aβ production, human wild-type amyloid precursor protein (APP) is overexpressed in Chinese hamster ovary cells (hereinafter referred to as CHO/APPwt cells), and the cells are treated with either PBS control (Phosphate buffered saline); Swedish peptide-1 (SwePep-1), […] (also referred herein as “APPsweBBP1”) (SEQ ID NO: 5); Swedish peptide-2 (SwePep-2) (also referred herein as “APPsweBBP”), […] (SEQ ID NO: 1); Swedish Tat fusion peptide-1 (SweTatPep-1), […] (also referred herein as “APPsweBBP/TTD1”) (SEQ ID NO: 6); or Swedish Tat fusion peptide-2 (SweTatPep-2) (also referred herein as “APPsweBBP/TTD2” and “TAT-APPsweBBP”), […] (SEQ ID NO: 3). APPsweBBP is a truncated fragment of APPswe spanning 12 amino acid residues (Glu665-Arg676). TAT, an 11-amino acid-residue protein-transduction domain derived from the HIV-1 transactivator of transcription protein, was conjugated at the C-terminus of APPsweBBP and biotin was conjugated at the N-terminus.
Following treatment, Aβ production is determined utilizing ELISA and the results illustrated in FIG. 1A. SweTatPep-2, SwePep-2, SwePep-1 and SweTatPep-1 each reduce Aβ40,42 by 63-65%, 30-33%, 31-34% and 37-38%, respectively.

In series [4] the test system is CHO cells over-expressing human Swedish mutant APP (CHO/APPswe). As to the kind of experiment: Aβ and sAPPα production in cultured media of CHO/APPswe cells by ELISA. Format: cell-based, Chinese hamster. Conditions: 20 μg/mL, 24 hours. The method, then: as §1
To confirm the binding of APPsweBBP with BACE1, CHO/APPwt cells were plated in 8-well chambers (5×10^5/well), incubated with TAT-APPsweBBP-biotin or APPsweBBP-biotin at 20 μM for 30 minutes, fixed with 4% paraformaldehyde for 20 minutes, washed and permeabilized with 0.5% Triton X-100. Following application of blocking buffer, these cells were stained with mouse anti-BACE1 and rabbit anti-biotin antibodies overnight at 4° C. for immunocytochemistry analysis. In order to determine the inhibitory effects of TAT-APPsweBBP on BACE1-mediated APP β-cleavage and subsequent Aβ production, both CHO/APPwt and CHO/APPswe cells were plated in 24 well-plates (3×10^5/well) and treated with TAT-APPsweBBP at 0-20 μM for 24 hours. The cultured media were collected for Aβ analysis by enzyme-linked immunosorbent assay (ELISA) and sAPPα analysis by ELISA and Western blot (WB). Cell lysates were also prepared for analysis of APP amyloidogenic processing by WB.
as §2, §3

Series [5] is classed as in vivo, mouse. As to conditions: biotin-labeled, 100 nM/kg i.p. daily for 5 days, 4 hours after last injection, 5XFAD mice. The procedure:
In order to determine the BBB permeability of TAT-APPsweBBP, biotin-labeled TAT-APPsweBBP or APPsweBBP (100 nM/kg in 100 μl physiological saline) was intraperitoneally (i.p.) administered daily to 5XFAD mice at 2 months of age for 5 days (n=5, female). The mice were euthanized 4 hours after the last injection and then brain tissues were removed, sectioned and stained with anti-BACE1 and anti-biotin antibodies. Alexa Fluor® 594 donkey anti-rabbit IgG was used to detect the biotin signal and Alexa Fluor® 488 goat anti-mouse IgG was used to detect the BACE1 signal. All images were taken with an Olympus Fluoview FV1000 laser scanning confocal microscope. […] No noticeable differences in biotin distribution were observed between 5XFAD and WT control mice following either biotin-labeled TAT-APPsweBBP or APPsweBBP injection (data not shown).
The hypothesis that TAT-APPsweBBP would more effectively penetrate the BBB compared with APPsweBBP alone was initially tested. 5XFAD mice at 2 months of age (n=5, female) were treated with biotin-labeled TAT-APPsweBBP or APPsweBBP (100 nM/kg, i.p.) daily for 5 days and then euthanized 4 hours after the last injection. Brain tissues were removed, sectioned, and stained with anti-BACE1 and anti-biotin antibodies. […] This highlights the importance of the membrane fusion fragment of the HIV-1 Tat protein (TAT) for cerebral delivery of APPsweBBP.

The subject of another series is 5XFAD mice. As to the kind of experiment: WB of BACE1, ADAM10, ADAM17, Akt, phospho-Akt and MBP in brain homogenates of 5XFAD mice. Format: in vivo, mouse. Conditions: vs TAT and PBS. The procedure:
5XFAD Mice—Transgenic AD mice [5XFAD; B6SJL-Tg(APPSwF1Lon,PSEN1*M146L*L286V) 6799Vas/Mmjax] at 2.5 months of age were obtained from the Jackson Laboratory (Bar Harbor, Me., USA) and housed and maintained in the Animal Facility of College of Medicine at University of South Florida. The mice at 3.5 months of age were treated with TAT-APPsweBBP, TAT peptide (100 nM/kg in 100 μl PBS) or PBS (100 μl) intraperitioneally (i.p.) daily for eight consecutive weeks. The mice were subjected to behavioral testing after 8 week-treatment and euthanized for immunohistochemical, ELISA and WB analysis after completing behavioral tests. All experiments involving mice were in compliance with the U.S. Department of Health and Human Services Guide for the Care and Use of Laboratory Animals and in accordance with the guidelines of the USF Institutional Animal Care and Use Committee.
Western Blotting (WB) and Analysis—WB analysis was performed as previously described (Modi et al., 2013; Tung et al., 2002). Briefly, the proteins from the various cell-free, cell and brain lysates or homogenates were electrophoretically separated using 10% bicine/tris gel (8 M urea) for proteins less than 5 kD or 10% tricine/tris gels for larger proteins. […]
In addition to cognitive testing, neuronal APP proteolysis was also evaluated by ELISA and WB. […]

In the next series the test system is γ-secretase. As to conditions: Phase 3; cited from earlier work.

`NC1=N[C@@]2(c3cc(NC(=O)c4ccc(F)cn4)ccc3F)COC[C@H]2CS1` [LY2886721]: the “reason for trial suspension” value on BACE1 [1] is on record as “possible liver toxicity”.

Take “EISEVNLDAEFR (listed as Homo sapiens) [APPsweBBP2]”: the “% of inhibition (mean ± SD) of BACE1” value with BACE1 [2] was ~40% and 38.43%. In series [3], the “Secreted Aβ40 (ng/mg; mean ± SD)” value was determined as 7.01 ± 1.02 ng/mg, the “Secreted Aβ42 (ng/mg; mean ± SD)” value was 0.73 ± 0.034 ng/mg and the “Secreted sAPPα (ng/mg; mean ± SD)” value was found to be 5201.64 ± 119.63 ng/mg. Moreover, the “reduction of Aβ40,42” value in the series with CHO/APPwt cells is 30-33%. In series [4], the “Secreted Aβ40 (ng/mg; mean ± SD)” value is listed as 41.41 ± 8.43 ng/mg, the “Secreted Aβ42 (ng/mg; mean ± SD)” value came to 6.54 ± 0.85 ng/mg and the “Secreted sAPPα (ng/mg; mean ± SD)” value amounted to 253.56 ± 20.11 ng/mg.

For “YGRKKRRQRRREISEVNLDAEFR [APPsweBBP/TTD2]”, on BACE1 [2] (listed as TAT-APPswe^bBBP), the “% of inhibition (mean ± SD) of BACE1” value stood at 93.23 ± 2.73%. Besides, the inhibition at 20 µM at BACE1 [2] (read-out: % of inhibition (mean ± SD) of BACE1, peptide final concentration 20 μM, 90 minutes, room temperature) is more than 90%. The BBB penetration entry in series [5] is given as “highly penetrated the BBB”. Further, the “total Akt, phosphorylated Akt and MBP expression levels in brain homogenates” value in the series on 5XFAD mice is “did not differ”.

For `CC(C)[C@H](O)C(=O)N[C@@H](C)C(=O)N[C@@H]1C(=O)N(C)CCc2ccccc21` [semagacestat], the “activities of daily living and cognition in treated patients” value with γ-secretase is given as “worsened”.
